Columns and labels:
PKR [1] = biological target: T1, PKR (Rattus norvegicus, UniProt Q63184); conditions: dose of 0.1 mg/kg i.p. (Ingrand et al., 2007); cited from earlier work
T1 sequence (Q63184 1-513): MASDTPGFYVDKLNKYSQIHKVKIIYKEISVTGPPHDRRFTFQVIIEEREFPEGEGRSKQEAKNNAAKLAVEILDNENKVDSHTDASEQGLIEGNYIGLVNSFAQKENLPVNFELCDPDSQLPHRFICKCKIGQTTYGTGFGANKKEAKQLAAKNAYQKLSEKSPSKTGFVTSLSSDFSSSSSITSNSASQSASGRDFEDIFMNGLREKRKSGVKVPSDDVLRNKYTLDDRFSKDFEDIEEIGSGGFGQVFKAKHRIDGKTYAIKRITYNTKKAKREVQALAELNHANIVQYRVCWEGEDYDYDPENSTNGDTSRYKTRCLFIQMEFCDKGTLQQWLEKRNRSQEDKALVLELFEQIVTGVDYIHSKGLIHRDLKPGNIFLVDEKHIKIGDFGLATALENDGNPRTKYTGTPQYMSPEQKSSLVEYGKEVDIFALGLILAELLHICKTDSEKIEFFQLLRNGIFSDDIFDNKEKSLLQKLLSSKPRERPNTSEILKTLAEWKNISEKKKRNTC

[2] = tested on: hippocampal slices from WT mice; assay: Field recording (population spikes, fEPSPs) in CA1 of hippocampal slices; assay type: cell-based, mouse
Experimental: Field recording: horizontal hippocampal slices ([…]) were cut from brains of WT or age-matched Pkr^−/− littermates in 4° C. artificial cerebrospinal fluid (ACSF) and kept in ACSF at room temperature for at least one hr before recording, as described (Zhu et al., 2005). Slices were maintained in an interface-type chamber perfused with oxygenated ACSF (95% O2 and 5% CO2) containing in mM: 124 NaCl, 2.0 KCl, 1.3 MgSO4, 2.5 CaCl2, 1.2 KH2PO4, 25 NaHCO3, and 10 glucose (2-3 ml/min). Bipolar stimulating electrodes were placed in the CA1 stratum radiatum to stimulate Schaffer collateral and commissural fibers. Field potentials were recorded using ACSF-filled micropipettes at 28-29° C. The recording electrodes were placed in the stratum radiatum for field excitatory postsynaptic potentials (fEPSPs), and stratum pyramidale for population spikes. The stimulus strength of the 0.1 ms pulses was adjusted to evoke 30-35% of maximum response for fEPSPs, and 50% of maximal response for population spikes. A stable baseline of responses was established for at least 30 min at 0.033 Hz. Tetanic LTP was induced by high-frequency stimulation in brief trains (100 Hz, 1 s), applied either as a single train or four trains separated by 5 min intervals. A short train consisted of 5 stimuli (100 Hz within-burst). When indicated, ACSF was supplemented with anisomycin (Calbiochem, Calif.), PKRi (Calbiochem, Calif.), bicuculline (Tocris) or diazepam (Sigma-Aldrich). It should be noted that the inventors used bicuculline free base which only blocks GABAA receptor rather than bicuculline-M (bicuculline methiodide, methobromide or methochloride) which in addition to GABAA receptor also blocks small conductance (SK) calcium-activated potassium channels (Debarbieux et al., 1998). […] To reduce day-to-day variations, whenever possible simultaneous recordings (in the same chamber) were obtained from slices from Pkr^−/− mice and WT littermates treated with drugs or vehicle. Statistical analysis was performed using t-test and two-way ANOVA. All data are presented as means±SEM and “n” indicates the number of slices.

[3] = tested on: Pkr−/− hippocampal slices; assay type: cell-based, mouse
Experimental: (§1) Field recording: horizontal hippocampal slices ([…]) were cut from brains of WT or age-matched Pkr^−/− littermates in 4° C. artificial cerebrospinal fluid (ACSF) and kept in ACSF at room temperature for at least one hr before recording, as described (Zhu et al., 2005). Slices were maintained in an interface-type chamber perfused with oxygenated ACSF (95% O2 and 5% CO2) containing in mM: 124 NaCl, 2.0 KCl, 1.3 MgSO4, 2.5 CaCl2, 1.2 KH2PO4, 25 NaHCO3, and 10 glucose (2-3 ml/min). Bipolar stimulating electrodes were placed in the CA1 stratum radiatum to stimulate Schaffer collateral and commissural fibers. Field potentials were recorded using ACSF-filled micropipettes at 28-29° C. The recording electrodes were placed in the stratum radiatum for field excitatory postsynaptic potentials (fEPSPs), and stratum pyramidale for population spikes. The stimulus strength of the 0.1 ms pulses was adjusted to evoke 30-35% of maximum response for fEPSPs, and 50% of maximal response for population spikes. A stable baseline of responses was established for at least 30 min at 0.033 Hz. Tetanic LTP was induced by high-frequency stimulation in brief trains (100 Hz, 1 s), applied either as a single train or four trains separated by 5 min intervals. A short train consisted of 5 stimuli (100 Hz within-burst). When indicated, ACSF was supplemented with anisomycin (Calbiochem, Calif.), PKRi (Calbiochem, Calif.), bicuculline (Tocris) or diazepam (Sigma-Aldrich). It should be noted that the inventors used bicuculline free base which only blocks GABAA receptor rather than bicuculline-M (bicuculline methiodide, methobromide or methochloride) which in addition to GABAA receptor also blocks small conductance (SK) calcium-activated potassium channels (Debarbieux et al., 1998). […] To reduce day-to-day variations, whenever possible simultaneous recordings (in the same chamber) were obtained from slices from Pkr^−/− mice and WT littermates treated with drugs or vehicle. Statistical analysis was performed using t-test and two-way ANOVA. […]

WT mice = assay: Contextual and auditory fear conditioning; assay type: in vivo, mouse; conditions: PKRi 0.1 mg/kg i.p. immediately after training, n=8
Experimental: The experimenter was blind to the genotype for all behavioral tests. Fear conditioning was performed as previously described (Costa-Mattioli et al., 2007). Mice were first handled for 3-5 min for 3 days and then habituated to the conditioning chamber for 20 min for another 3 days. On the training day, after 2 min in the conditioning chamber, mice received a pairing of a tone (2800 Hz, 85 db, 30 s) with a co-terminating foot-shock (0.35 mA, 1 s), after which they remained in the chamber for two additional min and then were returned to their home cages. Mice were tested 24 hr after training for “freezing” (immobility with the exception of respiration) in response to the tone (in a chamber to which they had not been conditioned) and to the training context (training chamber).
During testing for auditory fear conditioning, mice were placed in the chamber and freezing responses were recorded during the initial 2 min (pre-CS period) and during the last 3 min when the tone was played. Mice were returned to their cages 30 s after the end of the tone. […] For extinction trials, freezing in response to the conditioned context was assessed for 5 min, 24 hr, 48 hr, 72 hr and 96 hr after training and normalized to the amount of freezing obtained at 24 hr. For all tests, freezing behavior was determined at 5 s intervals during a 5 min period. […]

WT hippocampal slices = assay: Tetanic LTP (E-LTP/L-LTP) in hippocampal slices; assay type: cell-based, mouse
Experimental: as §1

[4] = tested on: CA1 neurons in WT hippocampal slices; assay type: cell-based, mouse
PKR [5] = biological target: T2, PKR (Homo sapiens, UniProt P19525); conditions: final concentration of 1 μM (Page et al., 2006; Wang et al., 2007); cited from earlier work
T2 sequence (P19525 whole entry): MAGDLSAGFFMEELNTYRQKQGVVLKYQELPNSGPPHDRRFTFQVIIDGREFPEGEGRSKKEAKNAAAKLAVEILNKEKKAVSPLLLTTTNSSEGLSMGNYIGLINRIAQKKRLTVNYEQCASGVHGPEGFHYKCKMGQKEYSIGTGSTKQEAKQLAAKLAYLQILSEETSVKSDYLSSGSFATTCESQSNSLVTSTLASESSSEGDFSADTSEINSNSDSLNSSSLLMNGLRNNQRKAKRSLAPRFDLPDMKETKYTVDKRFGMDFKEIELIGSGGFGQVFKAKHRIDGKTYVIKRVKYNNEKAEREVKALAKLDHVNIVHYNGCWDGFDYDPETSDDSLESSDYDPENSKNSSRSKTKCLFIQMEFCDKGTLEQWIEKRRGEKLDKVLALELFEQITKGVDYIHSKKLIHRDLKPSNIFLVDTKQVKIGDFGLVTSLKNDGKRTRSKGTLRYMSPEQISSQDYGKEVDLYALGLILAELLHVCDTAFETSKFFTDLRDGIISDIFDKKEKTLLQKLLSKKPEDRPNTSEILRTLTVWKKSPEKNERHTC

[6] = tested on: hippocampal slices from Pkr−/− mice; assay: Field recording (population spikes) in CA1 of hippocampal slices; assay type: cell-based, mouse; conditions: PKRi
Experimental: Field recording: horizontal hippocampal slices ([…]) were cut from brains of WT or age-matched Pkr^−/− littermates in 4° C. artificial cerebrospinal fluid (ACSF) and kept in ACSF at room temperature for at least one hr before recording, as described (Zhu et al., 2005). Slices were maintained in an interface-type chamber perfused with oxygenated ACSF (95% O2 and 5% CO2) containing in mM: 124 NaCl, 2.0 KCl, 1.3 MgSO4, 2.5 CaCl2, 1.2 KH2PO4, 25 NaHCO3, and 10 glucose (2-3 ml/min). Bipolar stimulating electrodes were placed in the CA1 stratum radiatum to stimulate Schaffer collateral and commissural fibers. Field potentials were recorded using ACSF-filled micropipettes at 28-29° C. The recording electrodes were placed in the stratum radiatum for field excitatory postsynaptic potentials (fEPSPs), and stratum pyramidale for population spikes. The stimulus strength of the 0.1 ms pulses was adjusted to evoke 30-35% of maximum response for fEPSPs, and 50% of maximal response for population spikes. A stable baseline of responses was established for at least 30 min at 0.033 Hz. Tetanic LTP was induced by high-frequency stimulation in brief trains (100 Hz, 1 s), applied either as a single train or four trains separated by 5 min intervals. A short train consisted of 5 stimuli (100 Hz within-burst). […]

adult WT mice = assay: Video EEG recordings in freely moving mice; assay type: in vivo, mouse
From the text: Pkr knockout (Pkr^−/−) mice (Abraham et al., 1999) were back-crossed for at least eight generations to 129SvEv mice. Mice were weaned at the third postnatal week and genotyped by PCR. Briefly, the mutant and corresponding WT alleles are detected by a four-primer PCR assay in which Oligo-1 (5′-GGAACITrGGAGCAATGGA-3′) and Oligo-2 (5′-[…]-3′) give a WT band of 225 base-pair fragment and Oligo-3 (5′-TGTTCTGTGGCTATCAGGG-3′) and Oligo-4 (5′-[…]-3′) give a 432 base-pair fragment from the deleted allele. eIF2α^+/S51A mice were previously described (Costa-Mattioli et al., 2007; Scheuner et al., 2001). All experiments were performed on 8-16 weeks old males. The mice were kept on a 12 h light/dark cycle, and the behavioral experiments were always conducted during the light phase of the cycle. The mice had access to food and water ad libitum, except during tests. […]
PKRi (Calbiochem, San Diego), a potent ATP-binding-site-directed inhibitor of PKR which blocks PKR autophosphorylation (Jammi et al., 2003; Shimazawa and Hara, 2006), was prepared as a 20 mM stock solution in DMSO (dimethyl sufloxide). PKRi was freshly dissolved in saline and then injected intraperitoneally (i.p.) at a dose of 0.1 mg/kg and the EEG was recorded 1 hr after injection. A digital video camera simultaneously monitored behavior during the EEG recordings. […]

PKR [7] = biological target: T2, PKR; conditions: Jammi et al., 2003; Shimazawa and Hara, 2006; cited from earlier work
[8] = tested on: CA1 neurons in Pkr−/− hippocampal slices; assay: Whole-cell patch clamp recording of synaptic currents; assay type: cell-based, mouse; conditions: PKRi
[9] = PKRi 1 μM, −60 mV, kynurenic acid
[10] = PKRi 1 μM, −60 mV, kynurenic acid 2 mM, TTX 1 μM

SMILES: O=C1Nc2ccc3ncsc3c2/C1=C/c1cnc[nH]1 [PKRi]
- PKR activity in the hippocampus in vivo (PKR [1]): known to block PKR activity in the hippocampus in vivo
- Decrease of CA1 population spike amplitude during short high frequency train (cumulative inhibition) ([2]; 5 pulses at 100 Hz): minimal or no high-frequency stimulation-induced decrease in spike amplitude
- Duration of burst ([2]; PKRi 1 μM, bicuculline 2 μM): increased
- Number of evoked spikes ([2]; PKRi 1 μM, bicuculline 2 μM): increased
- After-discharges after a single stimulus ([2]; PKRi 1 μM, in presence of bicuculline 2 μM, half-maximal stimulation at 0.03 Hz): pronounced after-discharges
- Initial slope of EPSPs ([2]; PKRi 1 μM, single stimulus): did not alter
- Presynaptic afferent volley ([2]; PKRi 1 μM, single stimulus): did not alter
- Amplitude of population spikes ([2]; PKRi 1 μM, single stimulus, WT slices): enhanced
- Population spikes (firing) in slices pre-treated with bicuculline ([2]; WT slices pre-treated with the GABAA antagonist bicuculline): no further enhancement of firing
- LTP elicited by a single 100 Hz train (1 s) ([3]; PKRi, Pkr−/− slices): did not further potentiate LTP
- Auditory fear memory (freezing 24 hr after training) (WT mice): enhanced
- Contextual fear memory (freezing 24 hr after training) (WT mice): enhanced
- LTP after a single high frequency train (100 Hz for 1 s) (WT hippocampal slices; PKRi 1 μM, WT slices, at 220 min p<0.001): converts E-LTP into L-LTP
- Evoked EPSCs ([4]; PKRi 1 μM bath application, picrotoxin 100 μM, −70 mV): no effect
- Amplitude of sIPSCs [4, 9]: not amplitude
- Frequency of sIPSCs [4, 9]: decreases
- Amplitude of mIPSCs [4, 10]: but not their amplitude
- Frequency of mIPSCs [4, 10]: decreased
- Amplitude of pharmacologically isolated monosynaptic eIPSCs ([4]; PKRi bath-application, 50 μM APV, 10 μM CNQX, 10 μM CGP55845, 0 mV, half-maximal stimulation): reduced
- Electrically isolated eIPSCs ([4]; PKRi, holding potential 0 mV, half-maximal stimulation): Reduced
- Amplitude or frequency of sEPSCs, mEPSCs or eEPSCs ([4]; WT slices treated with PKRi): not significantly changed
- mIPSCs Rise Time 10%-90% ([4]; WT slices treated with PKRi): 1.36 ± 0.07 ms
- mIPSCs τW ([4]; WT slices treated with PKRi): 21.28 ± 1.24 ms
- sIPSCs Rise Time 10%-90% ([4]; WT slices treated with PKRi): 1.68 ± 0.18 ms
- sIPSCs τW ([4]; WT slices treated with PKRi): 22.89 ± 0.78 ms
- Paired-pulse depression of IPSCs (IPSC2/IPSC1) ([4]; at 50 ms inter-stimulus interval): reduced
- PKR activity ex-vivo (PKR [5]): known to block PKR activity ex-vivo
- Population spikes [6]: no effect
- Abnormal EEG activity present (mice affected) (adult WT mice; PKRi 0.1 mg/kg i.p., recorded one hour after injection, absent in all WT controls (n=6), p<0.01): 6 out of 7
- Cortical EEG activity (adult WT mice; PKRi 0.1 mg/kg, adult WT mice): induces acute spiking (d) and rhythmic bursts (e)
- PKR autophosphorylation (PKR [7]): blocks
- Amplitude of evoked IPSCs [8]: did not alter

SMILES: COc1ccc(C[C@H]2NC[C@H](O)[C@H]2OC(C)=O)cc1 [anisomycin]
- Facilitated L-LTP after a single train ([3]; anisomycin, Pkr−/− slices, at 220 min p<0.01): suppressed

SMILES: CN1C(=O)CN=C(c2ccccc2)c2cc(Cl)ccc21 [diazepam]
- L-LTP after a single train [3]: prevented the induction of L-LTP
- L-LTP induction by four trains at 100 Hz (WT hippocampal slices): blocked L-LTP induction
- L-LTP induced by four tetanic trains (WT hippocampal slices; low concentration of diazepam (11 μM), WT slices): no effect
